Test results taken from patent US10308644B2, “Heterocyclic compounds as immunomodulators” (Incyte Corporation, priority 2016, dated 2019).

Molecular target: PD-1/PD-L1 (Homo sapiens (Human), UniProt Q9NZQ7)
Assay: PD-1/PD-L1 Homogeneous Time-Resolved Fluorescence (HTRF) Binding Assay
Conditions: recombinant human PD-1 (3 nM) and PD-L1 (10 nM), 25° C., PBS pH 7.4
How it was run: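 Fc-tagged human PD-1 (25-167, 3 nM) and His-tagged PD-L1 (19-238, 10 nM) preincubated with inhibitor 40 min in PBS pH 7.4, 0.05% Tween-20, 0.1% BSA, 1% DMSO, 25 °C. Binding detected by HTRF (Eu anti-IgG/APC anti-His, 665/620 nm) after 60 min; IC50 from percent control activity.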

Chain of PD-1/PD-L1 (Q9NZQ7 19-238): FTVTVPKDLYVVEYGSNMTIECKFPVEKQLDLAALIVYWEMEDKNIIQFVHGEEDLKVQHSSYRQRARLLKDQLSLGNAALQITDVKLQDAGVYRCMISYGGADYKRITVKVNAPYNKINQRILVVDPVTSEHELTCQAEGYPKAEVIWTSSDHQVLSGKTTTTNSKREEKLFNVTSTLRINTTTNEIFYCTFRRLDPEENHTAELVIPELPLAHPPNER

Row | Structure (SMILES) | IC50
1 | Cc1c(-c2nc3cc(CN4CC[C@H](C(=O)O)C4)cc(C#N)c3o2)cccc1-c1cccc(NC(=O)c2nc3c(n2C)CCN(CCO)C3)c1Cl [Example 93, (S)-1-((2-(2′-chloro-3′-(5-(2-hydroxyethyl)-1-methyl-4,5,6,7-tetrahydro-1H-imidazo[4,5-c]pyridine-2-carboxamido)-2-methylbiphenyl-3-yl)-7-cyanobenzo[d]oxazol-5-yl)methyl)pyrrolidine-3-carboxylic acid] | ≤ 10 nM
2 | Cc1c(-c2nc3c(o2)CN(C(=O)CN2CC4CC2CN4C)C3)cccc1-c1cccc(-c2nc3cc(CN4CC[C@@H](C(=O)O)C4)cc(C#N)c3o2)c1C (stereo partly drawn) [Example 255, (3R)-1-((7-cyano-2-(2,2′-dimethyl-3′-(5-(2-(5-methyl-2,5-diazabicyclo[2.2.1]heptan-2-yl)acetyl)-5,6-dihydro-4H-pyrrolo[3,4-d]oxazol-2-yl)biphenyl-3-yl)benzo[d]oxazol-5-yl)methyl)pyrrolidine-3-carboxylic acid] | ≤ 10 nM
3 | Cc1c(Nc2nccc3cc(CN4CC[C@@H](C(=O)O)C4)cnc23)cccc1-c1cccc(-c2nc3cc(CNC[C@H](C)O)cc(C#N)c3o2)c1C [Example 210, (R)-1-((8-(3′-(7-cyano-5-(((S)-2-hydroxypropylamino)methyl)benzo[d]oxazol-2-yl)-2,2′-dimethylbiphenyl-3-ylamino)-1,7-naphthyridin-3-yl)methyl)pyrrolidine-3-carboxylic acid] | ≤ 10 nM
4 | Cc1c(-c2nc3cc(CN4CCC(C(=O)O)CC4)cc(C#N)c3o2)cccc1-c1cccc(NC(=O)c2nc3c(n2C)CCN(C[C@@H](C)O)C3)c1Cl [Example 155, (R)-1-((2-(2′-chloro-3′-(5-(2-hydroxypropyl)-1-methyl-4,5,6,7-tetrahydro-1H-imidazo[4,5-c]pyridine-2-carboxamido)-2-methylbiphenyl-3-yl)-7-cyanobenzo[d]oxazol-5-yl)methyl)piperidine-4-carboxylic acid] | ≤ 10 nM
5 | Cc1c(-c2nc3cc(CN4CCCC[C@H]4C(=O)O)c(OCC#N)cc3o2)cccc1-c1cccc(-c2nc3cc(CN4CCCC[C@H]4C(=O)O)c(OCC#N)cc3o2)c1C [Example 7, (2S,2′S)-1,1′-(((2,2′-dimethyl-[1,1′-biphenyl]-3,3′-diyl)bis(6-(cyanomethoxy)benzo[d]oxazole-2,5-diyl))bis(methylene))bis(piperidine-2-carboxylic acid)] | ≤ 10 nM
6 | Cc1c(-c2nc3cc(CN4CC[C@H](C(=O)O)C4)cc(C#N)c3o2)cccc1-c1cccc(-c2nc3c(s2)CN(CCO)CC3)c1C [Example 67, (S)-1-((7-cyano-2-(3′-(5-(2-hydroxyethyl)-4,5,6,7-tetrahydrothiazolo[5,4-c]pyridin-2-yl)-2,2′-dimethyl-[1,1′-biphenyl]-3-yl)benzo[d]oxazol-5-yl)methyl)pyrrolidine-3-carboxylic acid] | ≤ 10 nM
7 | Cc1c(Nc2nccc3cc(CN4CC[C@@H](O)C4)cnc23)cccc1-c1cccc(-c2nc3cc(CN4CC(C(=O)O)C4)cc(C#N)c3o2)c1C [Example 85, (R)-1-((7-cyano-2-(3′-(3-((3-hydroxypyrrolidin-1-yl)methyl)-1,7-naphthyridin-8-ylamino)-2,2′-dimethylbiphenyl-3-yl)benzo[d]oxazol-5-yl)methyl)azetidine-3-carboxylic acid] | ≤ 10 nM
8 | Cc1c(-c2nc3c(o2)CN(C(=O)CN2CCC2)C3)cccc1-c1cccc(-c2nc3cc(CN4CC[C@@H](C(=O)O)C4)cc(C#N)c3o2)c1C [Example 130, (R)-1-((2-(3′-(5-(2-(azetidin-1-yl)acetyl)-5,6-dihydro-4H-pyrrolo[3,4-d]oxazol-2-yl)-2,2′-dimethyl-[1,1′-biphenyl]-3-yl)-7-cyanobenzo[d]oxazol-5-yl)methyl)pyrrolidine-3-carboxylic acid] | ≤ 10 nM
9 | CCN(C)CC(=O)N1Cc2nc(-c3cccc(-c4cccc(-c5nc6cc(CN7CC8(C(=O)O)CC7C8)cc(C#N)c6o5)c4C)c3C)oc2C1 [Example 242, 2-((7-cyano-2-(3′-(5-(N-ethyl-N-methylglycyl)-5,6-dihydro-4H-pyrrolo[3,4-d]oxazol-2-yl)-2,2′-dimethyl-[1,1′-biphenyl]-3-yl)benzo[d]oxazol-5-yl)methyl)-2-azabicyclo[2.1.1]hexane-4-carboxylic acid] | ≤ 10 nM

Continued, values first:

Row | IC50 | Structure (SMILES)
10 | ≤ 10 nM | Cc1c(-c2nc3cc(CN4CC[C@@H](C(=O)O)C4)cc(Cl)c3o2)cccc1-c1cccc(N2CCC(NC3CC3)CC2)c1Cl [Example 44, (R)-1-((7-chloro-2-(2′-chloro-3′-(4-(cyclopropylamino)piperidin-1-yl)-2-methylbiphenyl-3-yl)benzo[d]oxazol-5-yl)methyl)pyrrolidine-3-carboxylic acid]
11 | ≤ 10 nM | Cc1c(-c2nc3cc(CN4CC[C@@H](C(=O)O)C4)cc(C#N)c3o2)cccc1-c1cccc(Nc2nccc3nccnc23)c1Cl [Example 14, (R)-1-((2-(2′-chloro-2-methyl-3′-(pyrido[4,3-b]pyrazin-5-ylamino)biphenyl-3-yl)-7-cyanobenzo[d]oxazol-5-yl)methyl)pyrrolidine-3-carboxylic acid]
12 | ≤ 10 nM | Cc1c(Nc2nccc3cc(CN[C@@H](C)CO)cnc23)cccc1-c1cccc(-c2nc3cc(CN4CCC(C(=O)O)CC4)cc(C#N)c3o2)c1C [Example 201, (S)-1-((7-cyano-2-(3′-(3-((1-hydroxypropan-2-ylamino)methyl)-1,7-naphthyridin-8-ylamino)-2,2′-dimethylbiphenyl-3-yl)benzo[d]oxazol-5-yl)methyl)piperidine-4-carboxylic acid]
13 | ≤ 10 nM | CNC(=O)[C@@H]1CCN(Cc2cc(C#N)c3oc(-c4cccc(-c5cccc(-c6nc7c(s6)CN(C(C)C)CC7)c5C)c4C)nc3c2)C1 [Example 117, (R)-1-((7-cyano-2-(3′-(5-isopropyl-4,5,6,7-tetrahydrothiazolo[5,4-c]pyridin-2-yl)-2,2′-dimethyl-[1,1′-biphenyl]-3-yl)benzo[d]oxazol-5-yl)methyl)-N-methylpyrrolidine-3-carboxamide]
14 | ≤ 10 nM | Cc1c(-c2nc3cc(CN4CC[C@@H](O)C4)cc(C#N)c3o2)cccc1-c1cccc(NC(=O)c2nc3c(n2C)CCN(CC24CC(C(=O)O)(C2)C4)C3)c1Cl [Example 262, (R)-3-((2-(2-chloro-3′-(7-cyano-5-((3-hydroxypyrrolidin-1-yl)methyl)benzo[d]oxazol-2-yl)-2′-methylbiphenyl-3-yl-carbamoyl)-1-methyl-6,7-dihydro-1H-imidazo[4,5-c]pyridin-5(4H)-yl)methyl)bicyclo[1.1.1]-pentane-1-carboxylic acid]
15 | ≤ 10 nM | Cc1c(-c2nc3c(o2)CN(C(=O)CN2CCN(C)CC2)C3)cccc1-c1cccc(-c2nc3cc(CN4CC[C@@](C)(C(=O)O)C4)cc(C#N)c3o2)c1C [Example 254, (R)-1-((7-cyano-2-(2,2′-dimethyl-3′-(5-(2-(4-methylpiperazin-1-yl)acetyl)-5,6-dihydro-4H-pyrrolo[3,4-d]oxazol-2-yl)-[1,1′-biphenyl]-3-yl)benzo[d]oxazol-5-yl)methyl)-3-methylpyrrolidine-3-carboxylic acid]
16 | ≤ 10 nM | Cc1c(-c2nc3c(o2)CN(C(=O)CN2CC(C)(O)C2)C3)cccc1-c1cccc(-c2nc3cc(CN4CC[C@@H](C(=O)O)C4)cc(C#N)c3o2)c1C [Example 129, (R)-1-((7-cyano-2-(3′-(5-(2-(3-hydroxy-3-methylazetidin-1-yl)acetyl)-5,6-dihydro-4H-pyrrolo[3,4-d]oxazol-2-yl)-2,2′-dimethyl-[1,1′-biphenyl]-3-yl)benzo[d]oxazol-5-yl)methyl)pyrrolidine-3-carboxylic acid]
17 | ≤ 10 nM | Cc1c(Nc2nccc3cc(CN4CC[C@@H](O)C4)cnc23)cccc1-c1cccc(-c2nc3cc(CN[C@H]4CCC[C@H]4C(=O)O)cc(C#N)c3o2)c1C [Example 175, (1R,2S)-2-((7-cyano-2-(3′-(3-(((R)-3-hydroxypyrrolidin-1-yl)methyl)-1,7-naphthyridin-8-ylamino)-2,2′-dimethylbiphenyl-3-yl)benzo[d]oxazol-5-yl)methylamino) cyclopentanecarboxylic acid]
18 | ≤ 10 nM | CCN1CCc2nc(-c3cccc(-c4cccc(-c5nc6cc(CN7CC[C@@H](C(=O)O)C7)cc(Cl)c6o5)c4C)c3C)sc2C1 [Example 60, (R)-1-((7-chloro-2-(3′-(5-ethyl-4,5,6,7-tetrahydrothiazolo[5,4-c]pyridin-2-yl)-2,2′-dimethyl-[1,1′-biphenyl]-3-yl)benzo[d]oxazol-5-yl)methyl)pyrrolidine-3-carboxylic acid]
19 | ≤ 10 nM | Cc1c(-c2nc3cc(CN4CC[C@@H](C(=O)O)C4)cc(C#N)c3o2)cccc1-c1cccc(Nc2nccc3cc(CN4CCOC4=O)cnc23)c1Cl [Example 31, (R)-1-((2-(2′-chloro-2-methyl-3′-(3-((2-oxooxazolidin-3-yl)methyl)-1,7-naphthyridin-8-ylamino)biphenyl-3-yl)-7-cyanobenzo[d]oxazol-5-yl)methyl)pyrrolidine-3-carboxylic acid]
20 | ≤ 10 nM | CC(=O)NCCNCc1cc(C#N)c2oc(-c3cccc(-c4cccc(-c5nc6c(s5)CN(C(C)C)CC6)c4C)c3C)nc2c1 [Example 118, N-(2-(((7-cyano-2-(3′-(5-isopropyl-4,5,6,7-tetrahydrothiazolo[5,4-c]pyridin-2-yl)-2,2′-dimethyl-[1,1′-biphenyl]-3-yl)benzo[d]oxazol-5-yl)methyl)amino)ethyl)acetamide]
21 | ≤ 10 nM | Cc1c(Nc2nccc3cc(CN4CC[C@@](C)(C(=O)O)C4)cnc23)cccc1-c1cccc(-c2nc3cc(CN[C@@H](C)CO)cc(C#N)c3o2)c1C [Example 215, (R)-1-((8-(3′-(7-cyano-5-(((S)-1-hydroxypropan-2-ylamino)methyl)benzo[d]oxazol-2-yl)-2,2′-dimethylbiphenyl-3-ylamino)-1,7-naphthyridin-3-yl)methyl)-3-methylpyrrolidine-3-carboxylic acid]
